The source of these data is patent US20040006094A1, “4-pyrimidinamine derivatives, pharmaceutical compositions and related methods” (priority 2000, published 2004).

The first assay has as its system differentiated P19 neurons. In words: Drug screening using differentiated P19 cell assay (neuroprotection against 3 mM glutamate and 1 mM glycine). The class given is cell-based, murine. Particulars: Mus musculus, Neuron; dose response 0.005-3 μM; >1 = no observed maximum within highest dose tested (3 μM). As to the method: Commercially available chemical libraries (BioFocus PLC, UK) were screened using the methods described herein. The stock concentration of the compounds was about 400 μM in DMSO. The concentration of compounds used in the primary screen was 1 μM. […] Columns 4-11 received compounds at the following final concentrations (μM): 3, 1.2, 0.48, 0.192, 0.077, 0.031, 0.012 and 0.005. Each row contained a different compound for confirmation. Only rows B-G received compounds, and rows A and H remained untreated.
Only the 4-pyrimidinamines are the subject of this invention, although limited data for 2-pyridinamines are presented as well. “% Inh” indicates the percentage of control cells surviving after 24 hours, and represents the neuroprotective effect of the compounds screened at 1 micromolar concentration. IC50 relate to data from dose response experiments. […] ND refers to compounds not tested in dose-response experiments.
The representative compounds listed in Tables IX<X, XI and XII were tested according to the procedure described in Example 5 with results as listed in Table XIII. Unless otherwise noted, molecular weights were measure on a Hewlitt-Packard Series 1050 Chemical Ionization mass spectrometer.
`CCN(CCO)c1ccc(Nc2cc(-c3cc4ccccc4s3)ncn2)cc1` [Cmpd 54, ethanol, 2-[[4-[(6-benzo[b]thien-2-yl-4-pyrimidinyl)amino]phenyl]ethylamino]-]: the midpoint of inhibition, the IC50, lay at 0.24 µM.

`CCN(CCO)c1ccc(Nc2cc(-c3cccc(N(C)C)c3)ncn2)cc1` [Cmpd 148]: half-maximal inhibition (IC50) was put at 0.47 µM. This IC50 lies about 2-fold higher than the previous one.

On to `CCN(CCO)c1ccc(Nc2cc(-c3cccc(-c4ccccc4)c3)ncn2)cc1` [Cmpd 46, ethanol, 2-[[4-[(6-[1,1′-biphenyl]-3-yl-4-pyrimidinyl)amino]phenyl]ethylamino]-], for which it took 0.07 µM to reach half-maximal inhibition (IC50).

In turn, `CN(C)c1ccc(Nc2cc(-c3cccc4ccccc34)ncn2)cc1` [Cmpd 61] had a 50% inhibitory concentration (IC50) greater than 1 µM. On the same count and under the same terms, for `CN(C)c1ccc(Nc2cc(-c3ccccc3Oc3ccccc3)ncn2)cc1` [Cmpd 63] the value was greater than 1 µM. The same measure, in the same setting: with `CCN(CCO)c1ccc(Nc2cc(-c3ccccc3Oc3ccccc3)ncn2)cc1` [Cmpd 56] the figure was 0.57 µM. Molecule `CCN(CCO)c1ccc(Nc2cc(-c3ccc(SC)cc3)ncn2)cc1` [Cmpd 50] registered an IC50 of 0.41 µM. Regarding `CCN(CCO)c1ccc(Nc2cc(-c3cccc([N+](=O)[O-])c3)ncn2)cc1` [Cmpd 49], 0.55 µM corresponded to half-maximal inhibition (IC50).

Turning to `CCN(CCO)c1ccc(Nc2cc(-c3ccsc3)ncn2)cc1` [Cmpd 55], it took 0.86 µM to reach half-maximal inhibition (IC50). Compared with the last molecule, the IC50 is about 1.6-fold higher. On the same count and under the same terms, for `Oc1ccc(-c2cc(Nc3ccc(N4CCN(c5ccccc5)CC4)cc3)ncn2)cc1` [Cmpd 65] the value was greater than 1 µM; for `CCN(CCO)c1ccc(Nc2cc(-c3ccc(-c4ccccc4)cc3)ncn2)cc1` [Cmpd 47], 0.49 µM; for `CCN(CCO)c1ccc(Nc2cc(-c3ccc(CNC(=O)OC(C)(C)C)cc3)ncn2)cc1` [Cmpd 147], 1.09 µM. Consider `CN(C)c1ccc(Nc2cc(-c3ccc(N(C)C)cc3)ncn2)cc1` [Cmpd 149], for which the midpoint of inhibition, the IC50, lay at 0.33 µM. This IC50 is about 3.3-fold lower than that of the molecule before.

Molecule `CCN(CCO)c1ccc(Nc2cc(-c3ccc(C#N)cc3)ncn2)cc1` [Cmpd 64] had an IC50 greater than 1 µM.

For the molecule `CN(C)c1ccc(Nc2cc(-c3cc(C(F)(F)F)cc(C(F)(F)F)c3)ncn2)cc1` [Cmpd 44, 1,4-benzenediamine, N^1-[6-[3,5-bis(trifluoromethyl)phenyl]-4-pyrimidinyl]-N^4,N^4-dimethyl-], the IC50 amounted to 0.26 µM. That is a sub-micromolar value.

In turn, `CN(C)c1ccc(Nc2cc(-c3ccc(C#N)cc3)ncn2)cc1` [Cmpd 62] came in with an IC50 greater than 1 µM. On to `CCN(CCO)c1ccc(Nc2cc(C3C=C4C=CC=CC4O3)ncn2)cc1` (stereo not shown) [Cmpd 53], for which the 50% inhibitory concentration (IC50) was 0.54 µM. Molecule `CN(C)c1ccc(Nc2cc(-c3cccc(-c4ccccc4)c3)ncn2)cc1` [Cmpd 43, 1,4-benzenediamine, N^1-(6-[1,1′-biphenyl]-3-yl-4-pyrimidinyl)-N^4,N^4-dimethyl-] registered an IC50 of 0.22 µM. As for `CCN(CCO)c1ccc(Nc2cc(-c3ccc(OC(F)(F)F)cc3)ncn2)cc1` [Cmpd 51, ethanol, 2-[ethyl[4-[[6-[4-(trifluoromethoxy)phenyl]-4-pyrimidinyl]amino]phenyl]amino]-], the IC50 worked out at 0.23 µM. In turn, `CCN(CCO)c1ccc(Nc2cc(-c3cnc(OCc4ccccc4)nc3OCc3ccccc3)ncn2)cc1` [Cmpd 58, 2-{[4-(2′,4′-is-benzyloxy-[4,5′]bipyrimidinyl-6-ylamino)-phenyl]-ethyl-amino}-ethanol] gave a 50% inhibitory concentration (IC50) of 0.39 µM.

Still in this assay, the particulars now being: dose response 0.005-3 μM; >1 = no observed maximum within highest dose tested (3 μM).
For `CCN(CCO)c1ccc(Nc2cc(-c3ccc4ccccc4c3)ncn2)cc1` [Cmpd 45], the IC50 amounted to 0.57 µM. This counts as sub-micromolar.

Molecule `CCn1c2ccccc2c2ccc(Nc3cc(-c4ccc(OC)c(OC)c4)ncn3)cc21` [Cmpd 151] came in with a 50% inhibitory concentration (IC50) greater than 1 µM.

For `CCn1c2ccccc2c2ccc(Nc3cc(-c4cc(OC)c(OC)c(OC)c4)ncn3)cc21` [Cmpd 152], the IC50 is greater than 1 µM. Consider `CN(C)c1ccc(Nc2cc(-c3ccc(OCc4ccccc4)cc3)ncn2)cc1` [Cmpd 42, 1,4-benzenediamine, N^1,N^1-dimethyl-N^4-[6-[4-(phenylmethoxy)phenyl]-4-pyrimidinyl]-], for which the 50% inhibitory concentration (IC50) came out at 0.2 µM. `CN(C)c1ccc(Nc2cc(-c3ccc4ccccc4c3)ncn2)cc1` [Cmpd 41] registered a 50% inhibitory concentration (IC50) of 0.54 µM. Molecule `CCN(CCO)c1ccc(Nc2cc(-c3cc(C(F)(F)F)cc(C(F)(F)F)c3)ncn2)cc1` [Cmpd 48] returned an IC50 of 0.48 µM.

In the case of `CCn1c2ccccc2c2ccc(Nc3cc(-c4ccc(N5CCN(C)CC5)cc4)ncn3)cc21` [Cmpd 154], 0.55 µM corresponded to half-maximal inhibition (IC50). The IC50 values of the last two molecules are within 1.5-fold of each other.

For the molecule `CN(C)c1ccc(Nc2cc(-c3cc4ccccc4o3)ncn2)cc1` [Cmpd 59], it took 0.48 µM to reach half-maximal inhibition (IC50).

The test system of a further assay is Male Wistar rats. In words: Transient model of cerebral ischemia in rats (lesion volume). The class given is in vivo, rat. Particulars: 0.6 mg/kg, i.v., 1 hr post ischemia onset; 24 h; average of 12. As to the method: Male Wistar rats (Iffa Crédo, France), weighing 250-300 g, were housed 2 per cage under a light-dark cycle of 12 hr-12 hr (light on at 7:00 a.m., off at 7:00 p.m.) at a room temperature of 21±2° C., with 50±15% humidity, for a minimum of 5 days before the experiments. During this time, the rats had free access to commercial rat chow (Trouw Nutrition France, Vigny, France, ref. 811002) and tap water.
The animals were anaesthetized with 5% halothane in air for induction, then 1-2% halothane during surgery. The rat's body temperature was maintained at 37° C. with a heating pad. A 2 cm incision was made at the center of the neck and the right common carotid artery (CCA), external carotid artery (ECA) and internal carotid artery (ICA) were exposed under an operating microscope. The ICA was further dissected to identify the pterygopalatine artery (PA) branch and the intracranial ICA branch. The CCA was ligated. A 3-0 silk suture was tied at the origin of the ECA and ligated. A catheter (id=0.58 mm) was introduced into the CCA through a small puncture and advanced to the intracranial branch of the ICA. A 4-0 surgical nylon suture was introduced into the catheter. A length of approximately 19 mm of nylon suture was gently advanced from the CCA into the lumen of the ICA until the suture blocked the origin of the MCA. The suture was sealed into the catheter by heat, leaving 1 cm of catheter protruding so the suture could be withdrawn to allow reperfusion. The incision was closed using skin clips. Anaesthesia was then terminated and the animals were placed under heat lamps until recovery from anaesthesia. The rats awakened 10-15 min later. After 2 hr of ischemia, reperfusion was performed by withdrawal of the suture until the tip cleared the ICA lumen. Vehicle or test compound was administered intraperitoneally (i.p.) or intravenously (i.v.) at 1 hr post ischemia onset.
24 h after the onset of occlusion, the rats were killed by decapitation. The brains were immediately removed, frozen in isopentane and stored at −20° C. The brains were then cut in 20 μm thick sections in a cryocut. Every 20th slice was used to measure infarct area. The sections were stained with cresyl violet and the areas of infarct in the striatum and cortex were determined by planimetry using an image analysis software (Image, NIH) after digitalization of the section images.
Following the procedure described above, MK-801, compound #46 and compound #264 (as listed in the Tables herein) were evaluated for neuroprotective effects in rats with results as listed in Table VIII. The data represent average lesion volume in mm^3 for 12 measurements. Vehicle used was 15% solutol in 5% dextrose.
With `CCN(CCO)c1ccc(Nc2cc(-c3cccc(-c4ccccc4)c3)ncn2)cc1` [Cmpd 46, ethanol, 2-[[4-[(6-[1,1′-biphenyl]-3-yl-4-pyrimidinyl)amino]phenyl]ethylamino]-], the “Cortex + Striatum Vol. (mm^3)” value was 326.6 ± 26.0 mm^3, the “Cortex Vol. (mm^3)” value is 247.6 ± 24.8 mm^3 and the “Striatum Vol. (mm^3)” value turned out to be 79.1 ± 3.0 mm^3.

The assay is the same for the next values; noted with them: 3 mg/kg, i.v., 1 hr post ischemia onset; 24 h; average of 12.
For the molecule `CCN(CCO)c1ccc(Nc2cc(-c3cccc(-c4ccccc4)c3)ncn2)cc1` [Cmpd 46, ethanol, 2-[[4-[(6-[1,1′-biphenyl]-3-yl-4-pyrimidinyl)amino]phenyl]ethylamino]-], the “Cortex + Striatum Vol. (mm^3)” value is 290.8 ± 28.1 mm^3, the “Cortex Vol. (mm^3)” value was found to be 214.7 ± 26.6 mm^3 and the “Striatum Vol. (mm^3)” value is 76.1 ± 2.8 mm^3.

A further assay relates to P19 neurons. Nature of the assay: P19 neuron viability / toxicity by Alamar blue fluorescence. As to conditions: 3 mM glutamate and 1 mM glycine for 24 hours. The class given is cell-based, murine. The method, then: Alamar Blue fluorescence, an indicator of cell viability, was used to determine cell viability after an NMDA-induced cytotoxic insult. […] However, since raw fluorescence counts vary from experiment to experiment, FIGS. 2A, 2B, and 2C are expressed as a percent of control.
Glutamate toxicity dose response in the presence of a constant 1 mM glycine concentration was measured in the differentiated P19 neurons. The curve generated through the data points is the average of 6 separate dose response curves. Data points are represented as the percent of control cells±standard error. % control=(([Glutamate]exp−[Glutamate]max)/(Controlvehicle−[Glutamate]max))×100.
The second method for measuring cell viability was a plate reader method. Cells plated into black 96 well plates (Packard viewplates) were loaded with 5% Alamar Blue dye (Biosource International). Alamar Blue is a dye that takes advantage of mitochondrial reductases to convert non-fluorescent resazurin to fluorescent resorufin (excitation 535 nm, emission 580 nm). Baseline fluorescence counts were read at room temperature in a Wallac plate reader immediately after addition of Alamar blue. Fluorescence counts of cell viability were taken the same way after 1 hour incubation at 37° C. Fluorescence was expressed as a percent of control, untreated cells after subtraction of background fluorescence. Live/dead cells were confirmed visually with a light microscope.
Cells were then assayed for Alamar blue fluorescence. The curve generated through the data points is the average of 3 separate dose response curves. Data points are represented as percent of control cells±standard error.
With `N[C@@H](CCC(=O)O)C(=O)O` [Glutamate], the “reduction in Alamar blue fluorescence” value was determined as 60%.

Staying with this assay, now noted: constant 1 mM glycine, 24 hours; average of 6 curves; read-out: Glutamate toxicity EC50.
For `N[C@@H](CCC(=O)O)C(=O)O` [Glutamate], the EC50 amounted to 8100 nM.

The assay is the same for the next values; noted with them: no inducer of toxicity (U0126: 10 μM).
For the molecule `NCC(=O)O` [Glycine], the “effect on basal P19 neuron viability, substance alone” value was “did not affect P19 neuron viability”.
